Data taken from ChEMBL document CHEMBL1201862, “PubChem BioAssay data set” (2004).
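Growth conditions: 96-well plates. Treatment: test compound, 48 hours, 5 concentrations. Analysis: linear interpolation between bracketing concentrations; unreached endpoints set to highest concentration. Abbreviation: GI50, concentration required for 50% inhibition of growth.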 Calls of active or inactive are those of the source. No stated cut-off is given here; in the data, active = GI50 up to about 1.1 µM and inactive = higher.

Tests used:
Assay in all cases: growth of human tumour cells (NCI), 48 h
[1] = test system: LOX IMVI
[2] = test system: CCRF-CEM
[3] = test system: UACC-257
[4] = test system: IGROV-1
[5] = test system: SF-539
[6] = test system: SNB-19
[7] = test system: UO-31
[8] = test system: HCC 2998
[9] = test system: MOLT-4
[10] = test system: NCI-H23
[11] = test system: NCI/ADR-RES
[12] = test system: SF-295
[13] = test system: HCT-116
[14] = test system: NCI-H522
[15] = test system: SNB-75
[16] = test system: HT-29
[17] = test system: COLO 205
[18] = test system: HL-60
[19] = test system: HOP-92
[20] = test system: U-251
[21] = test system: MDA-N
[22] = test system: OVCAR-3
[23] = test system: HCT-15
[24] = test system: NCI-H460
[25] = test system: NCI-H226
[26] = test system: A549
[27] = test system: Hs-578T
[28] = test system: SW-620
[29] = test system: BT-549
[30] = test system: HOP-62
[31] = test system: OVCAR-5
[32] = test system: SF-268
[33] = test system: K562
[34] = test system: T47D
[35] = test system: 786-0
[36] = test system: OVCAR-8
[37] = test system: SK-OV-3
[38] = test system: OVCAR-4
[39] = test system: DU-145
[40] = test system: CAKI-1
[41] = test system: RPMI-8226
[42] = test system: TK-10
[43] = test system: RXF 393
[44] = test system: UACC-62
[45] = test system: SK-MEL-2
[46] = test system: EKVX
[47] = test system: MCF7
[48] = test system: KM12
[49] = test system: A498
[50] = test system: SN12C
[51] = test system: MDA-MB-435
[52] = test system: MDA-MB-231
[53] = test system: ACHN
[54] = test system: PC-3
[55] = test system: M14

CC1=CC(=O)/C(=C/n2c(=S)[nH]c3ccccc32)C(=O)O1
GI50 [1]: > 100 µM (inactive) | GI50 [2]: 58.9 µM (inactive) | GI50 [3]: > 100 µM (inactive) | GI50 [4]: > 100 µM (inactive) | GI50 [5]: > 100 µM (inactive) | GI50 [6]: > 100 µM (inactive) | GI50 [7]: > 100 µM (inactive) | GI50 [8]: > 100 µM (inactive) | GI50 [9]: > 100 µM (inactive) | GI50 [10]: > 100 µM (inactive) | GI50 [11]: > 100 µM (inactive) | GI50 [12]: > 100 µM (inactive) | GI50 [13]: > 100 µM (inactive) | GI50 [14]: > 100 µM (inactive) | GI50 [15]: 35.7 µM (inactive) | GI50 [16]: > 100 µM (inactive) | GI50 [17]: > 100 µM (inactive) | GI50 [18]: < 0.01 µM (active) | GI50 [19]: > 100 µM (inactive) | GI50 [20]: > 100 µM (inactive) | GI50 [21]: > 100 µM (inactive) | GI50 [22]: > 100 µM (inactive) | GI50 [23]: > 100 µM | GI50 [24]: > 100 µM (inactive) | GI50 [25]: > 100 µM (inactive) | GI50 [26]: > 100 µM (inactive) | GI50 [27]: 72.8 µM (inactive) | GI50 [28]: > 100 µM (inactive) | GI50 [29]: > 100 µM (inactive) | GI50 [30]: > 100 µM (inactive) | GI50 [31]: > 100 µM (inactive) | GI50 [32]: > 100 µM (inactive) | GI50 [33]: > 100 µM (inactive) | GI50 [34]: > 100 µM (inactive) | GI50 [35]: > 100 µM (inactive) | GI50 [36]: > 100 µM (inactive) | GI50 [37]: > 100 µM (inactive) | GI50 [38]: > 100 µM (inactive) | GI50 [39]: > 100 µM (inactive) | GI50 [40]: > 100 µM (inactive) | GI50 [41]: > 100 µM (inactive) | GI50 [42]: > 100 µM (inactive) | GI50 [43]: 51.5 µM (inactive) | GI50 [44]: > 100 µM (inactive) | GI50 [45]: > 100 µM (inactive) | GI50 [46]: 76.4 µM (inactive) | GI50 [47]: > 100 µM (inactive) | GI50 [48]: > 100 µM (inactive) | GI50 [49]: > 100 µM (inactive) | GI50 [50]: > 100 µM (inactive) | GI50 [51]: > 100 µM (inactive) | GI50 [52]: > 100 µM (inactive) | GI50 [53]: > 100 µM (inactive) | GI50 [54]: > 100 µM (inactive) | GI50 [55]: > 100 µM (inactive)
